Measured values taken from PMC8509773, “3-Pyridinylidene Derivatives of Chemically Modified Lupane and Ursane Triterpenes as Promising Anticancer Agents by Targeting Apoptosis” (International Journal of Molecular Sciences, 2021).

Legend:
Test in all cases: NCI-60 SRB screening (one-dose and five-dose)
Type in all cases: cell-based, human
786-0 = details: 786-0, 10 μM, 48 h
Description: (§1) The compounds were added at a single concentration and the cell cultures were incubated for 48 h. The end point determinations were made with a protein binding dye, sulforhodamine B (SRB). […] The percentage of growth was evaluated spectrophotometrically versus controls not treated with test agents after 48-h exposure and using SRB protein assay to estimate cell viability or growth. […] Furthermore, mean graph midpoints (MG_MID) were calculated for each of the parameters, giving an average activity parameter over all cell lines for the tested compound. For the MG_MID calculation, insensitive cell lines were included with the highest concentration tested.

A549/ATCC = details: 10 μM, 48 h
Description: as §1

ACHN = details: 10 μM, 48 h
Description: as §1

CAKI-1 = details: CAKI-1, 10 μM, 48 h
Description: as §1

CCRF-CEM = details: 10 μM, 48 h
Description: as §1

DU-145 = details: DU-145, 10 μM, 48 h
Description: as §1

HCC-2998 = details: HCC-2998, 10 μM, 48 h
Description: as §1

HCT-116 = details: HCT-116, 10 μM, 48 h
Description: as §1

HCT-15 = details: HCT-15, 10 μM, 48 h
Description: as §1

HOP-62 = details: HOP-62, 10 μM, 48 h
Description: as §1

HOP-92 = details: HOP-92, 10 μM, 48 h
Description: as §1

HS 578T = details: 10 μM, 48 h
Description: as §1

HT29 = details: HT29, 10 μM, 48 h
Description: as §1

IGROV1 = details: IGROV1, 10 μM, 48 h
Description: as §1

LOX IMVI = details: 10 μM, 48 h
Description: as §1

MALME-3M = details: 10 μM, 48 h
Description: as §1

MDA-MB-231/ATCC = details: 10 μM, 48 h
Description: as §1

MDA-MB-435 = details: MDA-MB-435, 10 μM, 48 h
Description: as §1

MDA-MB-468 = details: MDA-MB-468, 10 μM, 48 h
Description: as §1

MOLT-4 = details: MOLT-4, 10 μM, 48 h
Description: as §1

NCI-H322M = details: 10 μM, 48 h
Description: as §1

NCI-H522 = details: NCI-H522, 10 μM, 48 h
Description: as §1

OVCAR-3 = details: OVCAR-3, 10 μM, 48 h
Description: as §1

OVCAR-5 = details: OVCAR-5, 10 μM, 48 h
Description: as §1

OVCAR-8 = details: OVCAR-8, 10 μM, 48 h
Description: as §1

RXF 393 = details: RXF 393, 10 μM, 48 h
Description: as §1

SF-295 = details: SF-295, 10 μM, 48 h
Description: as §1

SF-539 = details: SF-539, 10 μM, 48 h
Description: as §1

SK-MEL-2 = details: SK-MEL-2, 10 μM, 48 h
Description: as §1

SK-MEL-5 = details: SK-MEL-5, 10 μM, 48 h
Description: as §1

SK-OV-3 = details: SK-OV-3, 10 μM, 48 h
Description: as §1

SN12C = details: 10 μM, 48 h
Description: as §1

SNB-19 = details: SNB-19, 10 μM, 48 h
Description: as §1

SR = details: 10 μM, 48 h
Description: as §1

SW-620 = details: SW-620, 10 μM, 48 h
Description: as §1

T-47D = details: T-47D, 10 μM, 48 h
Description: as §1

TK-10 = details: TK-10, 10 μM, 48 h
Description: as §1

U251 = details: U251, 10 μM, 48 h
Description: as §1

UACC-257 = details: UACC-257, 10 μM, 48 h
Description: as §1

UO-31 = details: UO-31, 10 μM, 48 h
Description: as §1

CC(=O)O[C@H]1CC[C@]2(C)[C@H]3CC[C@@H]4[C@H]5[C@H](C)[C@@]6(C)OC[C@]5(CC[C@@]4(C)[C@]3(C)CC[C@H]2C1(C)C)CC6C(C)=O (stereo partly shown) [Compound 1]
Growth Percent (786-0): 97.17% | Growth Percent (A549/ATCC): 88.63% | Growth Percent (ACHN): 86.11% | Growth Percent (CAKI-1): 74.02% | Growth Percent (CCRF-CEM): 64.97% | Growth Percent (DU-145): 99.41% | Growth Percent (HCC-2998): 92.22% | Growth Percent (HCT-116): 41.92% | Growth Percent (HCT-15): 38.30% | Growth Percent (HOP-62): 100.79% | Growth Percent (HOP-92): 70.21% | Growth Percent (HS 578T): 98.58% | Growth Percent (HT29): 80.13% | Growth Percent (IGROV1): 51.77% | Growth Percent (LOX IMVI): 58.17% | Growth Percent (MALME-3M): 81.27% | Growth Percent (MDA-MB-231/ATCC): 88.35% | Growth Percent (MDA-MB-435): 83.22% | Growth Percent (MDA-MB-468): 57.26% | Growth Percent (MOLT-4): 42.52% | Growth Percent (NCI-H322M): 95.70% | Growth Percent (NCI-H522): 75.59% | Growth Percent (OVCAR-3): 84.02% | Growth Percent (OVCAR-5): 97.46% | Growth Percent (OVCAR-8): 92.52% | Growth Percent (RXF 393): 89.49% | Growth Percent (SF-295): 96.73% | Growth Percent (SF-539): 82.82% | Growth Percent (SK-MEL-2): 92.21% | Growth Percent (SK-MEL-5): 47.27% | Growth Percent (SK-OV-3): 98.97% | Growth Percent (SN12C): 88.79% | Growth Percent (SNB-19): 88.73% | Growth Percent (SR): 62.46% | Growth Percent (SW-620): 68.02% | Growth Percent (T-47D): 74.66% | Growth Percent (TK-10): 109.75% | Growth Percent (U251): 77.27% | Growth Percent (UACC-257): 84.73% | Growth Percent (UO-31): 95.19%
